The subject of one series is Hela S3 cultured cells. Briefly: Effects upon Hela S3 cultured cells (cell count after 72 hours). To be noted: Homo sapiens. Type of series: cell-based. Here is the method: Table 3 indicates the effects of typical Compounds (I) against Hela S3 culture cells In this Table, IC50 denotes the concentration of the test compound capable of reducing the number of the cells to 50% of the number of untreated cells.
The experiment was carried out in the following manner:
Cultured cells of Hela S3 were added to a MEM medium containing 10% (V/V) of bovine fetal serum and […] of glutamine to obtain a cell suspension of 3×10^4 cells/ml. The cell suspension was poured into each well (1 ml/well) of a multiplate having 24 wells for culturing at 37° C. in an incubator containing carbon dioxide (5%) and air (95%). After 24 hours, samples were dissolved or suspended in PBS, ethanol or dimethylsulfoxide were added to the medium at different concentrations,followed by culturing at 37° C. for 72 hours in the same incubator.
An aspirator was used to collect the medium from each well. The surface of each medium was washed by added PBS (1 ml) gently, and then PBS was sucked out. PBS containing trypsin (0.05%) and EDTA (0.02%) was poured into each well. After pipetting, the number of the cells in each suspension was counted by the use of a micro-cell counter (commercial product of Toa Iyo Denshi K.K., Japan). By reference to a curve showing the concentration vs. the number of the cells, IC50 (concentration of the sample capable of reducing the number of the cells to 50% on the basis of the number of control untreated cells) was measured.

The next series deals with Sarcoma 180 solid tumour. Type of series: in vivo, ddy mouse. To be noted: ddy mice, LD50 abdominal, ED50 single tail vein dose, tumour volume 7 days after implantation. From the text: (§1) In this table, C.I. denotes chemotherapeutic index, calculated as (LD50)/(ED50), wherein LD50 denotes the value of acute toxity, and ED50 denotes the dose of a sample which is capable of reducing the volume of Sarcoma 180 solid tumour to 50% of the corresponding volume of the solid tumour of untreated group.
(§2) The test compound was abdominally administered once to ddy mice, each group consisting of 5 animals.
(§3) 5×10^6 cells of Sarcoma 180 solid tumour were abdominally implanted into a ddy mouse. After 7 days, the cells were collected from the acsites fluid. The cells were washed once with physiological saline under sterile conditions and suspended in physiological saline to obtain a cell suspension containing 5×10^7 cells/ml, of which 0.1 ml was implanted into a ddy mouse (body weight 20±2 g) under the skin of the right armpit. The test compound was dissolved in physiological saline or the same solution containing Tween 80. 24 hours after implantation of the tumour cells, 0.1-0.2 ml of the solution containing the test compound was administered to the vein at the tail of each animal of the test group consisting of 5 animals. 7 days after the implantation, the major axis (a) and minor axis (b) of the tumour were measured to calculate the volume of the tumour as "a"×"b^2 "/2. The antitumour effect was indicated by T/C which is the ratio of the tumour volume in the test animals to the corresponding volume of the control (untreated) animals.
(§4) T/C ratios and the dose were respectively plotted on the ordinate using an arithmetic scale and on the abscissa using a logarithmic scale, the relationship between the dosage and the T/C ratio being converted to a straight line by the least squares method. From the straight tropic line thus-obtained, the dose corresponding to a T/C=0.5 viz. ED50 was determined.

Series [1] is described as follows: in vivo. Particulars: mouse, ip.
Description: as §1, §3, §4
Sarcoma 180 solid tumour cells (5×10^6) were subcutaneously implanted into the skin under the right armpit of each mouse (body weight 20±2 g) of a group consisting of 5 male mice (ddy strain). 24 hours later, a test compound was intraperitoneally administered to each animal. 4 days later, blood (0.02 ml) was collected from the suborbital plexus vein of each tumour-carrying animal. The collected sample of blood was dispersed in 9.98 ml of Cell-kit Seven solution. One drop of saponin solution was added to the sample to dissolve erythrocytes and then a microcell counter was used to measure the number of leucocytes. On graph paper, the number of leucocytes was plotted on the ordinate using an arithmetic scale, and the dosage was plotted on the abscissa using a logarithmic scale to plot the relationship of the dosage to the number of peripheral leucocytes, from which the value of WBC4000, viz. a value capable of giving 4000 peripheral leucocytes (about half of the corresponding value in normal mice) per mm^3, was obtained.

Series [2] is described as follows: in vivo. To be noted: mouse, ip, ddy mice, single abdominal administration, 14 days observation, Behrens-Korber's method.
Description: as §2

Here are results for eight compounds from US4791130A, “Mitomycin derivatives as antileukemia agents” (priority 1986, dated 1988).

Values after ≈ are worked out from the molar mass of the structure shown. Read-outs that look alike come from different tables or passages of the source.

A word on the IC50: it is the midpoint of a concentration-inhibition curve. One may read the LD50 as the dose at which mortality reaches 50%. Lower therefore signals a more toxic substance. In the series on Hela S3 cultured cells (HeLa S3, 72 h), `CON=C1C(=O)C2=C(C(=O)C1C)N1C[C@@H]3N[C@@H]3[C@]1(OC)[C@@H]2COC(N)=O` (stereo partly drawn) [Example 1, [1aS-(1aα,8β,8aα,8bα)]-8-{[(aminocarbonyl)oxy]methyl}-8a-methoxy-6-[(methoxy)imino]-5-methyl-1,1a,2,5,6,8,8a,8b-octahydro-azirino-[2',3':3,4]pyrrolo[1,2-a]indole-4,7-dione] had an IC50 of 12 ng/mL (≈ 0.0329 µM). Further, in the series with Sarcoma 180 solid tumour, the “C.I. (chemotherapeutic index, LD50/ED50)” value was 0.7. In addition, the selectivity ratio in the series “in vivo [1]” came to 0.5. In addition, the LD50 at 336 h in the series “in vivo [2]” is 37.5 mg/kg.

`CO[C@@]12[C@H](COC(N)=O)C3=C(C(=O)C(C)C(=NOCC(C)C)C3=O)N1C[C@@H]1N[C@@H]12` (stereo partly drawn) [Example 2, [1aS-(1aα, 8β, 8aα, 8bα)]-8-{[(aminocarbonyl)oxy]methyl}-6-[(isobutyloxy)imino]-8a-methoxy-5-methyl1,1a,2,5,6,8,8a,8b-octahydro-azirino[2',3':3,4]pyrrolo[1,2-a]indole-4,7-dione] registered an IC50 in the series on Hela S3 cultured cells (HeLa S3, 72 h) of 3 ng/mL (≈ 0.00738 µM). Also, the “C.I. (chemotherapeutic index, LD50/ED50)” value with Sarcoma 180 solid tumour came out at 3.6. Further, the selectivity ratio in the series “in vivo [1]” was found to be 1.9. The median lethal dose (LD50) at 336 h in “in vivo [2]” was 18.8 mg/kg.

With `CCC(C)ON=C1C(=O)C2=C(C(=O)C1C)N1C[C@@H]3N[C@@H]3[C@]1(OC)[C@@H]2COC(N)=O` (stereo partly shown) [Example 3], inhibition in the series on Hela S3 cultured cells (HeLa S3, 72 h) was half-maximal at 1 ng/mL (≈ 0.00246 µM) (IC50). The “C.I. (chemotherapeutic index, LD50/ED50)” value in the series on Sarcoma 180 solid tumour came out at 3.1. In addition, the selectivity ratio in the series “in vivo [1]” came out at 2.4. Moreover, the LD50 at 336 h in the series “in vivo [2]” was 18.8 mg/kg.

Consider `CCCCON=C1C(=O)C2=C(C(=O)C1C)N1C[C@@H]3N[C@@H]3[C@]1(OC)[C@@H]2COC(N)=O` (stereo partly shown) [Example 4], for which 6 ng/mL (≈ 0.0148 µM) corresponded to half-maximal inhibition in the series with Hela S3 cultured cells (HeLa S3, 72 h) (IC50). The “C.I. (chemotherapeutic index, LD50/ED50)” value in the series with Sarcoma 180 solid tumour came out at 2.7. The selectivity ratio in the series “in vivo [1]” stood at 0.9. In “in vivo [2]”, this compound returned an LD50 at 336 h of 18.8 mg/kg.

As for `CO[C@@]12[C@H](COC(N)=O)C3=C(C(=O)C(C)C(=NOCC(C)C)C3=O)N1C[C@H]1[C@@H]2N1C` (stereo partly drawn) [Example 5, [1aS-(1aα, 8β, 8aα, 8bα)]-8-{[(aminocarbonyl)oxy]methyl}-1,5-dimethyl-6-[(isobutyloxy)imino]8a-methoxy-1,1a,2,5,6,8,8a,8b-octahydro-azirino [2',3': 3,4]pyrrolo[1,2-a]indole-4,7-dione], the “C.I. (chemotherapeutic index, LD50/ED50)” value in the series on Sarcoma 180 solid tumour was determined as 3.4. For the same compound, the selectivity ratio in the series “in vivo [1]” was 1.4. The compound further yielded a 50% lethal dose (LD50) at 336 h in the series “in vivo [2]” of 60 mg/kg.

On to `CC(C)CON=C1C(=O)C2=C(C(=O)C1C)N1C[C@H]3[C@H](N3C)[C@]1(O)[C@H]2COC(N)=O` (stereo partly shown) [Example 6], for which inhibition in the series with Hela S3 cultured cells (HeLa S3, 72 h) was half-maximal at 30 ng/mL (≈ 0.0738 µM) (IC50).

Regarding `CO[C@@]12[C@H](CO)C3=C(C(=O)C(C)C(=NOCC(C)C)C3=O)N1C[C@@H]1N[C@@H]12` (stereo partly drawn) [Example 7, [1aS-(1aα, 8β, 8aα, 8bα)]-8-hydroxymethyl-6-[(isobutyloxy)imino] -8a-methoxy-5-methyl-1,1a, 2,5,6,8,8a,8b-octahydro-azirino [2',3':3,4]pyrrolo[1,2-a] indole-4,7-dione], in the series with Hela S3 cultured cells (HeLa S3, 72 h), the IC50 worked out at 3 ng/mL (≈ 0.00826 µM).

With `CO[C@@]12[C@H](COC(N)=O)C3=C(C(=O)C(C)=C(N)C3=O)N1C[C@@H]1N[C@@H]12` [Mitomycin C, reference compound], the IC50 with Hela S3 cultured cells (Hela S3 cells, 72 hours at 37° C., concentration reducing cell number to 50% of untreated, read-out: IC50) was 4 ng/mL (≈ 0.012 µM).
